Results on 60 compounds are retold here after paper PMC12040169 (PLOS Biology, 2025).

The first series can be described thus: in vitro. Particulars: human, hela cells, % viability.
As to `CC(=O)Nc1ccc(N2CC34C=CC(O3)C(C(=O)O)C4C2=O)cc1` (stereo not drawn) [CBK287020], the viability (commonly a read-out of living cells in per cent, often relative to untreated cells) at 28.5 h, 10 µM amounted to 100%. With `COc1ccc(C(=O)Nc2ccccc2C(=O)NCCCC(=O)O)cc1` [CBK287024], the viability at 28.5 h, 10 µM worked out at 111%. Same read-out and setting: the same measure for `Cc1ccc(NC(=O)COc2ccccc2/C=C/C(=O)O)cc1C` [CBK287026]: 111%. The same measure, in the same setting: the same measure for `Cc1ccccc1OCC(=O)Nc1ccc(C(=O)O)c(Cl)c1` [CBK287027]: 83.6%; for `COc1ccc(C(=O)O)cc1CN1CCOCC1` [CBK287029]: 102%. As for `COc1cc(C(=O)O)ccc1Oc1cnn(-c2ccccc2)c(=O)c1Cl` [CBK287032], the viability at 28.5 h, 10 µM stood at 94.9%. On the same count and under the same terms, the same measure for `CC(=O)c1c(C(C)=O)c(C)n(-c2ccc(C(=O)O)cc2)c1C` [CBK287036]: 90.9%.

Regarding `O=C(O)c1ccc(OCCN2CCOCC2)cc1` [CBK287038], the viability at 28.5 h, 10 µM stood at 94.5%. On the same count and under the same terms, the same measure for `CCC(C(=O)O)N1C(=O)NC2C1N(C)C(=O)N2C` (stereo not drawn) [CBK287039]: 79.9%; for `O=C(CN1C(=O)c2ccccc2C1=O)Nc1cccc(C(=O)O)c1` [CBK287040]: 110%.

`O=C(CCCN1C(=O)c2ccccc2C1=O)Nc1ccc(C(=O)O)cc1` [CBK287043]: the viability at 28.5 h, 10 µM is 94.2%. With `COc1cc(CNc2ccccc2Cl)ccc1OCC(=O)O` [CBK287045], the viability at 28.5 h, 10 µM is 89.7%.

For `O=C(Cc1ccccc1)Nc1ccc(C(=O)O)cc1NC(=O)Cc1ccccc1` [CBK287049], the viability at 28.5 h, 10 µM came to 108%. Turning to `Cc1c(-c2ccc(OCC(N)=O)cc2)nc2ccc(Br)cc2c1C(=O)O` [CBK287050], the viability at 28.5 h, 10 µM turned out to be 93.1%.

For `Cc1nn(Cc2ccc(Cl)cc2)c(C)c1NC(=O)CCC(=O)O` [CBK287051], the viability at 28.5 h, 10 µM came to 88.5%. As to `NC(CC(=O)O)c1ccc(OCCc2ccccc2)cc1` (stereo not drawn) [CBK287053], the viability at 28.5 h, 10 µM was 91.6%. The same measure, in the same setting: the same measure for `O=C(O)CCc1ccc(S(=O)(=O)NCc2ccccc2)cc1` [CBK287054]: 79.8%; for `O=C(O)CCCn1cc(NC(=O)CCc2ccccc2)cn1` [CBK287055]: 86.4%; for `O=C(O)C(Cc1c[nH]c2ccccc12)N1Cc2ccccc2C1=O` (stereo not drawn) [CBK287056]: 82%. On the same count and under the same terms, the same measure for `O=C(NC1CCCCC1)c1cc(NC(=O)c2ccccc2C(=O)O)ccc1Cl` [CBK287062]: 96.3%. Still for that read-out and setting: the same measure for `COc1ccc(-c2nc3ccccn3c2CN2CCC(C(=O)O)CC2)cc1OC` [CBK287063]: 89.9%; for `O=C(O)COCC(=O)NC12CC3CC(CC(C3)C1)C2` [CBK287065]: 97.9%; for `Cc1n[nH]c(NC(=O)/C=C/C(=O)O)c1-c1ccc(F)cc1` [CBK287068]: 96.7%.

Consider `Cc1oc2ccc(NS(=O)(=O)c3ccccc3)cc2c1C(=O)O` [CBK287071], for which the viability at 28.5 h, 10 µM stood at 95.3%. Still for that read-out and setting: the same measure for `O=C(O)CC(C(=O)N1CCOCC1)N1CCCCC1` (stereo not drawn) [CBK287074]: 98.7%; for `O=C(O)c1ccc2[nH]cc(CN3CCOCC3)c2c1` [CBK287081]: 89.9%; for `O=C(O)c1ccc(NC2=NS(=O)(=O)c3ccccc32)cc1` [CBK287084]: 84.4%.

In the case of `O=C(O)CC1SC(=O)N(c2ccccc2)C1=O` (stereo not drawn) [CBK287085], the viability at 28.5 h, 10 µM worked out at 78.8%. On the same count and under the same terms, the same measure for `O=C(O)c1ccc(Cl)c2c1C1C=CCC1C(c1ccccn1)N2` (stereo not drawn) [CBK287087]: 86.9%; for `COc1ccccc1C1CC(c2ccccc2)=NN1C(=O)CCC(=O)O` (stereo not drawn) [CBK287088]: 83.4%; for `CCn1c(SCC(=O)O)nnc1-c1c[nH]c2ccccc12` [CBK287089]: 85.9%. Still for that read-out and setting: the same measure for `CC1(c2ccccc2)CC(=O)N(CCC(=O)O)C1=O` (stereo not drawn) [CBK287091]: 83.3%; for `CN1CCN(C(=O)C2CCCCC2C(=O)O)CC1` (stereo not drawn) [CBK287092]: 86.4%.

In the case of `CC(=O)c1ccc2c(c1)[C@@H]1C=CC[C@@H]1[C@H](C(=O)O)N2` [CBK287093], the viability at 28.5 h, 10 µM is 91.6%. `CN(C1=NS(=O)(=O)c2ccccc21)c1ccccc1C(=O)O` [CBK287094]: the viability at 28.5 h, 10 µM turned out to be 90%. Still for that read-out and setting: the same measure for `Cc1cccc(N2C(=O)SC(N(CC(=O)O)c3cccc(C)c3)C2=O)c1` (stereo not drawn) [CBK287095]: 87.6%; for `O=C(O)CN(c1ccc(F)cc1)S(=O)(=O)c1ccc2c(c1)OCCO2` [CBK287096]: 84.1%. Take `O=C(O)Cn1nnnc1CN1CCc2ccccc2C1` [CBK287097]: the viability at 28.5 h, 10 µM turned out to be 94.3%. Turning to `CCC(C)(Sc1nc(C)ccc1C#N)C(=O)O` (stereo not drawn) [CBK287098], the viability at 28.5 h, 10 µM amounted to 88.7%. On to `O=C(O)c1cc(NCc2ccccc2)ccc1N1CCOCC1` [CBK287099], for which the viability at 28.5 h, 10 µM was found to be 101%. On to `COc1cc(C(=O)O)ccc1OCC(=O)Nc1ccc(F)cc1` [CBK287101], for which the viability at 28.5 h, 10 µM was determined as 95.5%. The same measure, in the same setting: the same measure for `CN1C(C)(C)CC(NC(=O)c2[nH]cnc2C(=O)O)CC1(C)C` [CBK287102]: 87.5%; for `O=C(O)CCC(=O)NC1CCN(Cc2ccccc2)CC1` [CBK287103]: 86.5%; for `CC(NC(=O)CCC(=O)O)C12CC3CC(CC(C3)C1)C2` (stereo not drawn) [CBK287105]: 97.9%.

Regarding `COc1cccc(NC(=O)C2C(C(=O)O)C3C=CC2C32CC2)c1` (stereo not drawn) [CBK287106], the viability at 28.5 h, 10 µM is 81.6%. On to `CC(C)(C)OC(=O)N1CCN(CCn2cc(C(=O)O)nn2)CC1` [CBK287112], for which the viability at 28.5 h, 10 µM was 86.8%. On the same count and under the same terms, the same measure for `O=C(Nc1ccccc1C(=O)O)c1ccccc1Cl` [CBK287114]: 88%; for `CC(=O)c1ccc(OCCn2c(SCC(=O)O)nc3ccccc32)cc1` [CBK287115]: 88.8%.

In the case of `Cc1nn2c(c1-c1ccccc1)NC(=O)CC2C(=O)O` (stereo not drawn) [CBK287118], the viability at 28.5 h, 10 µM turned out to be 95.3%. On the same count and under the same terms, the same measure for `CCOc1ccc(C(N)CC(=O)O)c2ccccc12` (stereo not drawn) [CBK287120]: 89.1%. Still for that read-out and setting: the same measure for `COc1ccc(C(CC(=O)O)c2ccc3c(c2)OCCO3)cc1OC` (stereo not drawn) [CBK287121]: 87%. On the same count and under the same terms, the same measure for `O=C(Nc1cccc(Cl)c1)c1cccc(NC(=O)c2ccccc2C(=O)O)c1` [CBK287122]: 81.8%. On to `CC(C)(C)NC(=O)c1cccc(N2C(=O)c3ccc(C(=O)O)cc3C2=O)c1` [CBK287123], for which the viability at 28.5 h, 10 µM stood at 86.8%. With `Cc1c(C(=O)O)ccc2c1N[C@@H](c1ccc(OCC#N)cc1)C1CC=CC21` (stereo partly drawn) [CBK287124], the viability at 28.5 h, 10 µM was determined as 89.2%.

In the case of `Cc1ccc(S(=O)(=O)N(CC(=O)O)c2ccc(Br)cc2)cc1` [CBK287125], the viability at 28.5 h, 10 µM amounted to 95.3%. Still for that read-out and setting: the same measure for `Cc1ccc(Oc2ccc3c(c2)C(=O)N(CC(=O)O)C3=O)cc1` [CBK287126]: 91.4%; for `CC(=O)C(CC(=O)O)C1=C(O)CC(C)(C)CC1=O` (stereo not drawn) [CBK287127]: 91.5%; for `COc1ccc(-c2nn(CC(=O)O)cc2/C=C/c2cc(C(F)(F)F)nc(=O)[nH]2)cc1` [CBK287128]: 86.8%. On the same count and under the same terms, the same measure for `Cc1nn2c(=O)cc(C(=O)O)[nH]c2c1-c1ccccc1` [CBK287129]: 88.2%.

Staying with this series, now noted: human, hela cells, % viability, bulk resorufin, single well.
On to `O=C(O)Cn1cc(C(=O)c2cccs2)c2ccccc21` [CBK287110], for which the viability at 28.5 h, 10 µM came out at 91.9%.
